Laboratory results published in patent publication US9156801B2, “2-substituted oleanolic acid derivative, method preparing for same, and application thereof” (HANGZHOU BENSHENG PHARMACEUTICAL CO., LTD., priority 2011, dated 2015).
Converted amounts (≈) assume the structure as drawn.

How the values were obtained:
[1] = test system: Becap37 cell line; experiment: solid tumor cell growth inhibition, MTT; format: cell-based; conditions: Homo sapiens; for inhibition at 16 µg/mL: Becap37, 16 μg/mL compound, 72 h, read-out: IR (cell proliferation inhibition rate); for IC50: Becap37, 72 h
Outline: (§1)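 Relative viable-cell counts come from MTT after 72 h of compound treatment; wells held 4000 cells in DMEM high glucose plus 10% FBS, incubated at 37° C, 5% CO2.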

[2] = test system: MG-63 cell line; experiment: solid tumor cell growth inhibition, MTT; format: cell-based; conditions: Homo sapiens; for IC50: MG-63, 72 h; for inhibition at 16 µg/mL: MG-63, 16 μg/mL compound, 72 h, read-out: IR (cell proliferation inhibition rate)
Outline: as §1

[3] = test system: CaES-17 cell line; experiment: solid tumor cell growth inhibition, MTT; format: cell-based; conditions: Homo sapiens, CaEs17; for inhibition at 16 µg/mL: CaES-17, 16 μg/mL compound, 72 h, read-out: IR (cell proliferation inhibition rate); for IC50: CaES-17, 72 h
Outline: as §1

[4] = test system: U87 MG cell line; experiment: solid tumor cell growth inhibition, MTT; format: cell-based; conditions: Homo sapiens, U-87 MG, 72 h; for inhibition at 16 µg/mL: 16 μg/mL compound, read-out: IR (cell proliferation inhibition rate)
Outline: as §1

[5] = test system: RKO cell line; experiment: solid tumor cell growth inhibition, MTT; format: cell-based; conditions: Homo sapiens, 72 h; for inhibition at 16 µg/mL: 16 μg/mL compound, read-out: IR (cell proliferation inhibition rate)
Outline: as §1

[6] = test system: CNE cell line; experiment: solid tumor cell growth inhibition, MTT; format: cell-based; conditions: Homo sapiens, 72 h; for inhibition at 16 µg/mL: 16 μg/mL compound, read-out: IR (cell proliferation inhibition rate)
Outline: as §1

[7] = test system: Hep-2 cell line; experiment: solid tumor cell growth inhibition, MTT; format: cell-based; conditions: Homo sapiens; for IC50: HEp-2, 72 h; for inhibition at 16 µg/mL: Hep-2, 16 μg/mL compound, 72 h, read-out: IR (cell proliferation inhibition rate)
Outline: as §1

[8] = test system: MGC 803 cell line; experiment: solid tumor cell growth inhibition, MTT; format: cell-based; conditions: Homo sapiens; for inhibition at 16 µg/mL: MGC 803, 16 μg/mL compound, 72 h, read-out: IR (cell proliferation inhibition rate); for IC50: MGC 803, 72 h
Outline: as §1

[9] = test system: PC-3 cell line; experiment: solid tumor cell growth inhibition, MTT; format: cell-based; conditions: Homo sapiens; for IC50: PC-3, 72 h; for inhibition at 16 µg/mL: PC-3, 16 μg/mL compound, 72 h, read-out: IR (cell proliferation inhibition rate)
Outline: as §1

[10] = test system: Hela cell line; experiment: solid tumor cell growth inhibition, MTT; format: cell-based; conditions: Homo sapiens, 72 h; for IC50: HeLa; for inhibition at 16 µg/mL: Hela, 16 μg/mL compound, read-out: IR (cell proliferation inhibition rate)
Outline: as §1

[11] = test system: SK-OV-3 cell line; experiment: solid tumor cell growth inhibition, MTT; format: cell-based; conditions: Homo sapiens; for IC50: SK-OV-3, 72 h; for inhibition at 16 µg/mL: SK-OV-3, 16 μg/mL compound, 72 h, read-out: IR (cell proliferation inhibition rate)
Outline: as §1

[12] = test system: A549 cell line; experiment: solid tumor cell growth inhibition, MTT; format: cell-based; conditions: Homo sapiens; for IC50: A549, 72 h; for inhibition at 16 µg/mL: A549, 16 μg/mL compound, 72 h, read-out: IR (cell proliferation inhibition rate)
Outline: as §1

[13] = test system: PANC-1 cell line; experiment: solid tumor cell growth inhibition, MTT; format: cell-based; conditions: Homo sapiens; for IC50: PANC-1, 72 h; for inhibition at 16 µg/mL: PANC-1, 16 μg/mL compound, 72 h, read-out: IR (cell proliferation inhibition rate)
Outline: as §1

[14] = test system: Hep G2 cell line; experiment: solid tumor cell growth inhibition, MTT; format: cell-based, human; conditions: Homo sapiens; for inhibition at 16 µg/mL: HepG2, 72 h, Hep G2, 16 μg/mL compound, 72 h, read-out: IR (cell proliferation inhibition rate); for IC50: HepG2, Hep G2, 72 h
Outline: as §1

[15] = test system: RPMI8226 cell line; experiment: multiple myeloma cell growth inhibition, MTT; format: cell-based; conditions: Homo sapiens, RPMI-8226; for inhibition at 16 µg/mL: RPMI8226, 16 μg/mL compound, 72 h, read-out: IR (cell proliferation inhibition rate); for IC50: RPMI8226, 72 h
Outline: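 RPMI8226 cells (6000 per well) in RPMI 1640 with 10% FBS were exposed to several concentrations of compound for 72 h at 37° C and 5% CO2. Viable cells were quantified by MTT, with inhibition set to 0% in untreated controls.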

[16] = test system: H9 cell line; experiment: leukemia cell growth inhibition, MTT; format: cell-based; conditions: Homo sapiens; for IC50: H9, 72 h; for inhibition at 16 µg/mL: H9, 16 μg/mL compound, 72 h, read-out: IR (cell proliferation inhibition rate)
Outline: (§2)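 6000 cells per well in RPMI 1640 with 10% FBS were exposed to the oleanolic acid derivatives at a range of concentrations for 72 h at 37 °C, 5% CO2. Viable cells were measured by MTT, with untreated control inhibition set at 0%.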

[17] = test system: Kasumi-1 cell line; experiment: leukemia cell growth inhibition, MTT; format: cell-based; conditions: Homo sapiens; for inhibition at 16 µg/mL: Kasumi-1, 16 μg/mL compound, 72 h, read-out: IR (cell proliferation inhibition rate); for IC50: Kasumi-1, 72 h
Outline: as §2

[18] = test system: NB4 cell line; experiment: leukemia cell growth inhibition, MTT; format: cell-based; conditions: Homo sapiens, NB-4; for inhibition at 16 µg/mL: NB4, 16 μg/mL compound, 72 h, read-out: IR (cell proliferation inhibition rate); for IC50: NB4, 72 h
Outline: as §2

[19] = test system: Jurkat cell line; experiment: leukemia cell growth inhibition, MTT; format: cell-based; conditions: Homo sapiens, 72 h; for inhibition at 16 µg/mL: 16 μg/mL compound, read-out: IR (cell proliferation inhibition rate)
Outline: as §2

[20] = test system: K562/adr cell line; experiment: leukemia cell growth inhibition, MTT; format: cell-based; conditions: Homo sapiens, 72 h; for IC50: K562/Adr; for inhibition at 16 µg/mL: K562/adr, 16 μg/mL compound, read-out: IR (cell proliferation inhibition rate)
Outline: as §2

Compound: COC(=O)[C@]12CCC(C)(C)C[C@H]1C1=CC[C@@H]3[C@@]4(C)CC(C(=O)NCC5CC5)C(=O)C(C)(C)[C@@H]4CC[C@@]3(C)[C@]1(C)CC2 (stereo partly drawn) [BS-OA-048]
- inhibition at 16 µg/mL [1]: -8.4%
- IC50 [1]: > 16 µg/mL
- IC50 [2]: > 16 µg/mL
- inhibition at 16 µg/mL [2]: -20.3%
- inhibition at 16 µg/mL [3]: -18.6%
- IC50 [3]: > 16 µg/mL
- inhibition at 16 µg/mL [4]: 5.6%
- IC50 [4]: > 16 µg/mL
- inhibition at 16 µg/mL [5]: -33.4%
- IC50 [5]: > 16 µg/mL
- inhibition at 16 µg/mL [6]: 21.9%
- IC50 [6]: > 16 µg/mL
- IC50 [7]: > 16 µg/mL
- inhibition at 16 µg/mL [7]: -5.3%
- inhibition at 16 µg/mL [8]: -5.9%
- IC50 [8]: > 16 µg/mL
- IC50 [9]: > 16 µg/mL
- inhibition at 16 µg/mL [9]: 17.7%
- IC50 [10]: > 16 µg/mL
- inhibition at 16 µg/mL [10]: 2.4%
- IC50 [11]: > 16 µg/mL
- inhibition at 16 µg/mL [11]: 22%
- IC50 [12]: > 16 µg/mL
- inhibition at 16 µg/mL [12]: -3.8%
- IC50 [13]: > 16 µg/mL
- inhibition at 16 µg/mL [13]: -17.8%
- inhibition at 16 µg/mL [14]: 7.4%
- IC50 [14]: > 16 µg/mL
- inhibition at 16 µg/mL [15]: 4.9%
- IC50 [15]: > 16 µg/mL
- IC50 [16]: > 16 µg/mL
- inhibition at 16 µg/mL [16]: 28.9%
- inhibition at 16 µg/mL [17]: 0.2%
- IC50 [17]: > 16 µg/mL
- inhibition at 16 µg/mL [18]: 11%
- IC50 [18]: > 16 µg/mL
- inhibition at 16 µg/mL [19]: -21.2%
- IC50 [19]: > 16 µg/mL
- IC50 [20]: > 16 µg/mL
- inhibition at 16 µg/mL [20]: 21.4%

Compound: COCCCNC(=O)C1C[C@]2(C)[C@H]3CC=C4[C@@H]5CC(C)(C)CC[C@]5(C(=O)OC)CC[C@@]4(C)[C@]3(C)CC[C@H]2C(C)(C)C1=O (stereo partly drawn) [BS-OA-052]
- inhibition at 16 µg/mL [1]: -12%
- IC50 [1]: > 16 µg/mL
- IC50 [2]: > 16 µg/mL
- inhibition at 16 µg/mL [2]: -33.5%
- inhibition at 16 µg/mL [3]: -8%
- IC50 [3]: > 16 µg/mL
- inhibition at 16 µg/mL [4]: 10.9%
- IC50 [4]: > 16 µg/mL
- inhibition at 16 µg/mL [5]: -48.6%
- IC50 [5]: > 16 µg/mL
- inhibition at 16 µg/mL [6]: 9.9%
- IC50 [6]: > 16 µg/mL
- IC50 [7]: > 16 µg/mL
- inhibition at 16 µg/mL [7]: -11.3%
- inhibition at 16 µg/mL [8]: -12.7%
- IC50 [8]: > 16 µg/mL
- IC50 [9]: > 16 µg/mL
- inhibition at 16 µg/mL [9]: 25.4%
- IC50 [10]: > 16 µg/mL
- inhibition at 16 µg/mL [10]: 25.6%
- IC50 [11]: > 16 µg/mL
- inhibition at 16 µg/mL [11]: 29.5%
- IC50 [12]: > 16 µg/mL
- inhibition at 16 µg/mL [12]: 3.1%
- IC50 [13]: > 16 µg/mL
- inhibition at 16 µg/mL [13]: 8.4%
- inhibition at 16 µg/mL [14]: 10%
- IC50 [14]: > 16 µg/mL
- inhibition at 16 µg/mL [15]: 25.2%
- IC50 [15]: > 16 µg/mL
- IC50 [16]: > 16 µg/mL
- inhibition at 16 µg/mL [16]: 38%
- inhibition at 16 µg/mL [17]: 19%
- IC50 [17]: > 16 µg/mL
- inhibition at 16 µg/mL [18]: 46.7%
- IC50 [18]: 16 µg/mL (≈ 27.4 µM)
- inhibition at 16 µg/mL [19]: -5%
- IC50 [19]: > 16 µg/mL
- IC50 [20]: 12.3 µg/mL (≈ 21 µM)
- inhibition at 16 µg/mL [20]: 64%

Compound: CCOCCNC(=O)C1C[C@@]2(C)C(CC[C@]3(C)C2CC=C2C4CC(C)(C)CC[C@]4(C(=O)OC)CC[C@]23C)C(C)(C)C1=O (stereo partly drawn) [BS-OA-053]
- inhibition at 16 µg/mL [1]: -10.2%
- IC50 [1]: > 16 µg/mL
- IC50 [2]: > 16 µg/mL
- inhibition at 16 µg/mL [2]: -32.5%
- inhibition at 16 µg/mL [3]: -13.1%
- IC50 [3]: > 16 µg/mL
- inhibition at 16 µg/mL [4]: 20.1%
- IC50 [4]: > 16 µg/mL
- inhibition at 16 µg/mL [5]: -55.6%
- IC50 [5]: > 16 µg/mL
- inhibition at 16 µg/mL [6]: 9.9%
- IC50 [6]: > 16 µg/mL
- IC50 [7]: > 16 µg/mL
- inhibition at 16 µg/mL [7]: -10%
- inhibition at 16 µg/mL [8]: 7.8%
- IC50 [8]: > 16 µg/mL
- IC50 [9]: > 16 µg/mL
- inhibition at 16 µg/mL [9]: 38.8%
- IC50 [10]: > 16 µg/mL
- inhibition at 16 µg/mL [10]: 27.5%
- IC50 [11]: > 16 µg/mL
- inhibition at 16 µg/mL [11]: 22.7%
- IC50 [12]: > 16 µg/mL
- inhibition at 16 µg/mL [12]: 2%
- IC50 [13]: > 16 µg/mL
- inhibition at 16 µg/mL [13]: -3.3%
- inhibition at 16 µg/mL [14]: 6.8%
- IC50 [14]: > 16 µg/mL
- inhibition at 16 µg/mL [15]: 29.5%
- IC50 [15]: > 16 µg/mL
- IC50 [16]: 15.5 µg/mL (≈ 26.6 µM)
- inhibition at 16 µg/mL [16]: 54.6%
- inhibition at 16 µg/mL [17]: 23.2%
- IC50 [17]: > 16 µg/mL
- inhibition at 16 µg/mL [18]: 71.3%
- IC50 [18]: 10.7 µg/mL (≈ 18.3 µM)
- inhibition at 16 µg/mL [19]: 13%
- IC50 [19]: > 16 µg/mL
- IC50 [20]: 10.8 µg/mL (≈ 18.4 µM)
- inhibition at 16 µg/mL [20]: 60.9%
